Assays:
Assay type in all cases: cell-based
Pseudomonas aeruginosa = test: Agar plate disc-diffusion antibacterial test, Pseudomonas aeruginosa; details: Gram negative
Experimental: (§1) The agar plate disc-diffusion method was applied. […] The discs were then placed onto the surface of agar plates (nutrient agar for bacteria) seeded with the test organism. Each plate contained 15 mL of the agar medium, previously seeded with 0.2 mL of the broth culture of each organism pregrown for 18 hours. The inhibition zones were measured in millimeters (mm). Discs impregnated with DMSO were used as a control, and its inhibition zone was subtracted from the tested compound's actual inhibition zone.
(§2) The antibacterial activity was screened against gram positive bacteria namely Bacillus cereus and Staphylococcus aureus and gram-negative bacterial strains namely Pseudomonas aeruginosa and Escherichia coli using ciprofloxacin as a reference, as shown in Table 1.

Bacillus cereus = test: Agar plate disc-diffusion antibacterial test, Bacillus cereus; details: Gram positive
Experimental: as §1, §2

Staphylococcus aureus = test: Agar plate disc-diffusion antibacterial test, Staphylococcus aureus; details: Gram positive
Experimental: as §1, §2

Escherichia coli = test: Agar plate disc-diffusion antibacterial test, Escherichia coli; details: Gram negative
Experimental: as §1, §2

[1] = A = concentration of comp. = 10,000 μL
[2] = B = concentration of comp. = 30.000 μL
[3] = C = concentration of comp. = 50,000 μL

## CCOc1nc(N)c(C#N)c(-c2ccc(Br)cc2)c1C#N [Compound 3, 2-amino-4-(4-bromophenyl)-6-ethoxypyridine-3,5-dicarbonitrile]
Pseudomonas aeruginosa; [1]
  inhibition zone, Pseudomonas aeruginosa, A: 23 mm
Pseudomonas aeruginosa; [2]
  inhibition zone, Pseudomonas aeruginosa, B: 33 mm
Pseudomonas aeruginosa; [3]
  inhibition zone, Pseudomonas aeruginosa, C: 39 mm
Bacillus cereus; [1]
  inhibition zone, Bacillus Cereus, A: 30 mm
Bacillus cereus; [2]
  inhibition zone, Bacillus Cereus, B: 36 mm
Bacillus cereus; [3]
  inhibition zone, Bacillus Cereus, C: 41 mm
Staphylococcus aureus; [1]
  inhibition zone, Staphylococcus aureus, A: 19 mm
Staphylococcus aureus; [2]
  inhibition zone, Staphylococcus aureus, B: 26 mm
Staphylococcus aureus; [3]
  inhibition zone, Staphylococcus aureus, C: 31 mm
Escherichia coli; [1]
  inhibition zone, Escherichia coli, A: 37 mm
Escherichia coli; [2]
  inhibition zone, Escherichia coli, B: 40 mm
Escherichia coli; [3]
  inhibition zone, Escherichia coli, C: 44 mm

Reference: patent US11986465B1, “2-amino-4-(4-bromophenyl)-6-ethoxypyridine-3,5-dicarbonitrile as an antibacterial compound” (KING FAISAL UNIVERSITY, priority 2023, dated 2024)
